Source: paper PMC10586017 (ACS Omega, 2023)
Marks after values point to notes of the source that are not given here.

Tests used:
Assay type in all cases: cell-based
Caco-2 cells = test: cells; details: Homo sapiens, Caco-2, read-out: mean IC50 Caco-2 ± SD
HepG-2 cells = test: cells; details: Homo sapiens, HepG2, read-out: mean IC50 HepG-2 ± SD
MCF-7 cells = test: cells; details: Homo sapiens, MCF7, read-out: mean IC50 MCF-7 ± SD
Vero cells = test: cells; details: Chlorocebus sabaeus, read-out: mean IC50 Vero cells
eIF4E = eIF4E (Homo sapiens, UniProt P06730)
p-eIF4E = p-eIF4E (Homo sapiens, UniProt P06730)
β-actin = tested on: β-actin

p-eIF4E, sequence (P06730 whole entry): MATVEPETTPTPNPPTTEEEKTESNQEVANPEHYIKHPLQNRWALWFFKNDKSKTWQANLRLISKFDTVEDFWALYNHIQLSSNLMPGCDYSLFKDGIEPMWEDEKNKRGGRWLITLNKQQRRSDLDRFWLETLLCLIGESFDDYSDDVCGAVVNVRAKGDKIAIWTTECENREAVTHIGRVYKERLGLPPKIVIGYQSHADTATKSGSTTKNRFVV
eIF4E, sequence (P06730 whole entry): as above

Structure (SMILES) | IC50 (Caco-2 cells) [µM] | IC50 (HepG-2 cells) [µM] | IC50 (MCF-7 cells) [µM] | IC50 (Vero cells) [µM] | change in fold, eIF4E (eIF4E) | decrease in eIF4E protein (eIF4E) [%] | mean protein, eIF4E (eIF4E) [ng/mL] | protein ratio normalized to reference protein, eIF4E (eIF4E) | change in fold, p-eIF4E (p-eIF4E) | inhibition (decrease) of p-eIF4E expression (p-eIF4E) [%] | mean protein, p-eIF4E (p-eIF4E) [ng/mL] | protein ratio normalized to reference protein, p-eIF4E (p-eIF4E) | mean protein, β-actin (β-actin) [ng/mL] | protein ratio normalized to reference protein, β-actin (β-actin)
CO[C@H]1C[C@@H]2CC[C@@H](C)[C@@](O)(O2)C(=O)C(=O)N2CCCC[C@H]2C(=O)O[C@H]([C@H](C)C[C@@H]2CC[C@@H](O)[C@H](OC)C2)CC(=O)[C@H](C)/C=C(\C)[C@@H](O)[C@@H](OC)C(=O)[C@H](C)C[C@H](C)/C=C/C=C/C=C/1C [Rapamycin] | 27.7 ± 1.63 | 47.6 ± 3.83 | 5.62 ± 0.24 | > 100 |  |  |  |  |  |  |  |  |  | 
NC(=O)c1ncn([C@@H]2O[C@H](CO)[C@@H](O)[C@H]2O)n1 [Ribavirin] | 9.78 ± 0.94 | 63.9 ± 3.43 | 10.2 ± 0.15 | > 100 | 0.68 | 32.1 | 2.520 | 42.6* | 0.47 | 53 | 2.190 | 35.5* | 3.118 | 72.2
